Read-outs that look alike come from different tables or passages of the source.
Assays:
[1] = molecular target: endogenous MLKL in MDF (Mus musculus (Mouse), UniProt Q9D2Y4); experiment: Degradation assay: endogenous MLKL in MDF (western blot); settings: MDF cells, 24 h incubation with compound, MLKL adjusted for loading with GAPDH, normalized to DMSO only control, read-out: Degradation of endogenous MLKL in MDF (DC50 cell-based assay)
Protocol: Degradation Assay: Screening Compounds Procedure to Evaluate the Activity of Compounds in Degrading Endogenous MLKL in Human and Mouse Cell
The mouse dermal fibroblast (MDF) cell line was seeded the day before the experiment in a 24-well plate at a cell density of […] per well in a volume of 0.5 mL per well and left to attach overnight. The human monocyte cell line (U937) was seeded on the day of the experiment in a 24-well plate at a cell density of […] per well in a volume of 0.5 mL per well.
The compound was diluted in DMSO with a starting concentration of 10 mM and titrated stepwise with a dilution of 1:5. 0.5 μL of the compound dilution was added to the appropriate well to achieve a final concentration of 10; 2; 0.4; 0.08 and 0.016 μM. A DMSO only well was included as control.
The cells were incubated for 24 h in the presence of the compound at 37° C. and 10% CO2.
After the 24 h incubation period, the medium was removed and cells washed with 0.5 mL PBS. The cells were then lysed directly in 60 μL of 1×SDS gel loading buffer.
The cell lysate was heat-denatured at […] for 10 min. 10 μL of lysate per well were run on 18-well 4-15% Criterion TGX stain free gels (BIO-RAD). The proteins were then transferred onto nitrocellulose membrane with a wet transfer protocol in the Criterion Blotter (BIO-RAD).
Membranes were blocked with 5% skim milk in TBST. Primary antibody against MLKL (clone 3H1, MABC604 Merck) was used at 1:2000 dilution in TBST with 1% BSA and left shaking over night at 4° C. After washes with TBST, the membranes were incubated with goat anti-rat IgG HRP-conjugated antibody (Southern Biotech) in 1% skim milk TBST at 1:10000 dilution for 1 h at room temperature. After TBST washes the bands were imaged on the ChemiDoc MP Imaging System (BIO-RAD) with Immobilion Western Chemiluminescent HRP Substrate Forte (Millipore). The loading control GAPDH was probed for with rabbit anti-GAPDH (CST 14C10) at 1:2000 dilution in 1% BSA TBST over night at 4° C. TBST washes were followed by incubation with goat anti-rabbit IgG HRP-conjugated antibody (Southern Biotech) in 1% skim milk TBST at 1:10000 dilution for 1 h at room temperature followed by TBST washes. The signal was detected as described above.
The band intensity was measured in the ImageLab Software (BIO-RAD) and the MLKL values adjusted for loading with GAPDH. The percentage of degradation was calculated by normalizing the compound treated values to the DMSO only control.

[2] = molecular target: human MLKL (full length) (Homo sapiens (Human), UniProt Q8NB16); experiment: KINOMEscan binding assay, human MLKL (full length)
human MLKL (full length), sequence (Q8NB16 whole entry, the tested form may be a part): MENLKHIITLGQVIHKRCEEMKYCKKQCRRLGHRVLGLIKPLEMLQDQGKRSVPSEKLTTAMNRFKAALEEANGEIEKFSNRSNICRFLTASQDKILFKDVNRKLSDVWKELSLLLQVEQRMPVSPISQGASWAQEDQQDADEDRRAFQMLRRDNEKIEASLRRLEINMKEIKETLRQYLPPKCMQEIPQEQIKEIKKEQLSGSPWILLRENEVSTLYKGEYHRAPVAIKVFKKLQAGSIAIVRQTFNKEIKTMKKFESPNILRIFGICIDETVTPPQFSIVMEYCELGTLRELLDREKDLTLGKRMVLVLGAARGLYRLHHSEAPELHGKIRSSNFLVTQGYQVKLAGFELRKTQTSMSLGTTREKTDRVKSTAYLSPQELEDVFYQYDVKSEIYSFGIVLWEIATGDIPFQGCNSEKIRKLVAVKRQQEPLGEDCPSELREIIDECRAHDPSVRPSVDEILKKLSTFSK
Summary of the method: (§1)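 Active-site competition binding: DNA-tagged kinase (T7 phage fusion from BL21-derived E. coli lysate, or HEK-293-expressed) captured on immobilized-ligand beads, with bound kinase in the eluate quantified by qPCR. Compounds ran as 11-point 3-fold dilutions, 1% DMSO, top 30,000 nM for most. Kd came from a Hill fit (slope −1).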

[3] = molecular target: human RIPK1 (Homo sapiens (Human), UniProt Q13546); experiment: KINOMEscan binding assay, human RIPK1; settings: Table 21
human RIPK1, sequence (Q13546 whole entry): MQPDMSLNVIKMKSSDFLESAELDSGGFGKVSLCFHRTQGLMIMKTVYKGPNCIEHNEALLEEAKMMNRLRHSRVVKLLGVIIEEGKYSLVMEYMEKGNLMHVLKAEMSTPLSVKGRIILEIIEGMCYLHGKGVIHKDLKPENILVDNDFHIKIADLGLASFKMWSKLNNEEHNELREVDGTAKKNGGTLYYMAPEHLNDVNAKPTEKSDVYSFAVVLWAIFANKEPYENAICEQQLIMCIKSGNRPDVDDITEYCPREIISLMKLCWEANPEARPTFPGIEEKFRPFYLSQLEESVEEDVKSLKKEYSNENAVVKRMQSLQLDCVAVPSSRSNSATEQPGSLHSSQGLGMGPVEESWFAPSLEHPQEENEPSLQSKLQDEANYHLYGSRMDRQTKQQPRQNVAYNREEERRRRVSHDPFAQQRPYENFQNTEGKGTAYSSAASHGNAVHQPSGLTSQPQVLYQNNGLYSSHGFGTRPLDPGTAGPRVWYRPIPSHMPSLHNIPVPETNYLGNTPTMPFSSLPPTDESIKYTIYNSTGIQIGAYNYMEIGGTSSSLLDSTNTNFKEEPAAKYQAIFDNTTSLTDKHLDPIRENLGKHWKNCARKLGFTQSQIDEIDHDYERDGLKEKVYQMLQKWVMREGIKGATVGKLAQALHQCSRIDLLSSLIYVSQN
Summary of the method: as §1

[4] = molecular target: human RIPK3 (Homo sapiens (Human), UniProt Q9Y572); experiment: KINOMEscan binding assay, human RIPK3; settings: Table 21
human RIPK3, sequence (Q9Y572 whole entry): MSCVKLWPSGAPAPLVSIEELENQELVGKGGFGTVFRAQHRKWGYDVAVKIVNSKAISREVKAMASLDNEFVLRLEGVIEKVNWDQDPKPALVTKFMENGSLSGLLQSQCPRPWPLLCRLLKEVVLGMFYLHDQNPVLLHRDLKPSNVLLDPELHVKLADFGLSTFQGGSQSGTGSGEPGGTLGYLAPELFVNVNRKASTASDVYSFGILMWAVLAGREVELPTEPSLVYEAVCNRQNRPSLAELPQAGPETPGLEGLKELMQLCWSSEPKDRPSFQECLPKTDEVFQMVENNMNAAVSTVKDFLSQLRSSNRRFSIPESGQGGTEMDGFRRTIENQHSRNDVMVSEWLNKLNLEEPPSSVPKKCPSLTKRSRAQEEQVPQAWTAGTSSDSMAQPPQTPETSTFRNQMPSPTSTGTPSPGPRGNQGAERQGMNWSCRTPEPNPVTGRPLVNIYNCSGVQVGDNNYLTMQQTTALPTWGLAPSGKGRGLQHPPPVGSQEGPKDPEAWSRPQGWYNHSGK
Summary of the method: as §1

[5] = tested on: Immortalised Mouse Dermal Fibroblasts (MDFs); experiment: Cellular assay: inhibition of TSI induced necroptosis, CellTitre-Glo viability; settings: Mus musculus, Fibroblast; MDF, 3 hours TSI cocktail, Table 24; read-out: Inhibition of TSI-induced necroptosis (IC50 cell-based assay) in MDF
Protocol: Cellular Assay: Screening Compounds for Inhibition of TSI Induced Necroptosis in, 384 Well Plate Format.
• Cell Line ID: Immortalised Mouse Dermal Fibroblasts (MDFs). • Cell Concentration (cells/well): Final cell density is 2200 cells per well. • Cell growth medium: DMEM medium+7.4% Fetal Bovine Serum (FBS). Cells are cultured in Corning 150 cm^2 tissue culture flasks with vented caps at 37° C./10% CO2. • Incubation: Plates were incubated for 30 minutes following addition of compounds and then 3 hours incubation with death stimuli (TSI cocktail) at 37° C./10% CO2 in a humidified incubator. • Compound concentration: 36 μM starting concentration, 1:3 dilution, 10 point • DMSO final concentration (% v/v): 0.3%. Compounds in TSI Cocktail (T: TNF; S: Smac Mimetic; I: IDN-6556) and their Final Concentrations: • rhTNF (100 ng/ml) • Compound a (500 nM)—Smac Mimetic, Tetralogic and SYNthesis Med Chem • IDN-6556 (10 μM)—Selleckchem (S7775)
The cellular assay was carried out according to the following steps: • 1. Each well was prepared by sequential addition of: • a. 40 μL of cell suspension (5.5×10^4 cells/mL) was added to each well to provide a final cell concentration of 2,200 cells per well. • b. After 24 hours, DMSO (control; columns 1-2 and 23-24) or compound in DMSO—addition was performed using acoustic transfer of nL volumes of stock compound to give final test concentrations of 36, 12, 4, 1.3, 0.44, 0.148, 0.049, 0.016, 0.005 and 0.002 μM. All wells were backfilled with DMSO to a final total volume in the well of 100 nL. • c. Following compound/DMSO addition in step (b), Plates were incubated for 30 minutes at 37° C./10% CO2 in a humidified incubator and then 10 μL of 5×TSI cocktail (except to positive controls; columns 2 and 24) was added to each well. • 2. After 3 hours, plate was removed from the 37° C. incubator and equilibrated to room temperature for 15 minutes. • 3. 15 μL of room temperatured CellTitre-Glo2™ (Promega™) was added to each well. • 4. Shook plates for 2 minutes (˜600 rpm) and incubated at room temperature for 15 minutes to allow signal to stabilise. • 5. Read luminescence readout on a plate reader.
Percent viability was calculated for each compound according to equation (2):
[formula] • Wherein RawData is the readout of any cell containing a compound of the invention.
TA is the total activity provided by the luminescence readout from DMSO only wells (columns 2 and 24)=100% viability.
NSA is the non-specific activity provided by DMSO+TSI wells (columns 1 and 23)=0% viability • Curve fitting: 10-point titration curves are fitted with the 4-parameter logistic nonlinear regression model and the IC50 reported is the inflection point of the curve • Analysis: Data was loaded into Dotmatics™ and visualised using the Tibco@ • Spotfire™ software. 10 point titration curves were fitted with the 4 parameter logistic nonlinear regression model and the IC50 reported reflect the inflection point of the curve for curve fitting.
Assay involving the TSI cocktail (T: TNF; S: Smac mimetic; I: IDN-6556): TSI treatment ensures that cells specifically undergo necroptotic cell death. TNF activates the TNF receptor, Smac mimetic directs the signal away from proinflammatory signaling and toward the RIPK1/RIPK3-mediated cell death pathways, and IDN-6556 (Caspase inhibitor) ensures that the apoptotic response is blocked leaving only the programmed necrosis response. The compounds' activity (solution in DMSO) tested in this TSI-induced assay was evaluated by determining the number of viable cells in culture by measuring the amount of ATP present as measured by CelltiterGlo.

[6] = KINOMEscan, Table 21, read-out: Human MLKL (full-length) (KD)

endogenous MLKL in MDF, sequence (Q9D2Y4 whole entry): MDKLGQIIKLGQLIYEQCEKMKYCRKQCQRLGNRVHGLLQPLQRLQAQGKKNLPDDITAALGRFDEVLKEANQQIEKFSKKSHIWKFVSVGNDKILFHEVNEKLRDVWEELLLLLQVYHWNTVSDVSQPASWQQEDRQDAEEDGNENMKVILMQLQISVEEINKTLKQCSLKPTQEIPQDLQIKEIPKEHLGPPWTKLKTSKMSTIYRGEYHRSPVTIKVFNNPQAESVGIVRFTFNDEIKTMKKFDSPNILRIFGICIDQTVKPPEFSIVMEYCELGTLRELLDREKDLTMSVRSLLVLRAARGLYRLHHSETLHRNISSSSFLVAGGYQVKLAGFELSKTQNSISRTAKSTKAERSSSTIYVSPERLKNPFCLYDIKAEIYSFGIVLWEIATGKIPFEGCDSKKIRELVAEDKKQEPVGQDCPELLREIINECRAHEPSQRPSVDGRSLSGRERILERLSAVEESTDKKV

Compound: C[C@H](Oc1cc(-c2nn(C)c3c(-c4cnn(C5CCN(C(=O)[C@]67C[C@](Nc8cccc9c8C(=O)N(C8CCC(=O)NC8=O)C9=O)(C6)C7)CC5)c4)cnc(N)c23)ccc1NS(=O)(=O)C(F)F)c1ccc(F)cc1 (stereo partly drawn) [Compound 1118, N-[4-(4-amino-7-{1-[1-(3-{[2-(2,6-dioxopiperidin-3-yl)-1,3-dioxo-2,3-dihydro-1H-isoindol-4-yl]amino}bicyclo[1.1.1]pentane-1-carbonyl)piperidin-4-yl]-1H-pyrazol-4-yl}-1-methyl-1H-pyrazolo[4,3-c]pyridin-3-yl)-2-[(1S)-1-(4-fluorophenyl)ethoxy]phenyl]-1,1-difluoromethanesulfonamide]
- DC50 [1]: < 1000 nM

Compound: Cc1ncsc1-c1ccc(CNC(=O)[C@@H]2C[C@@H](O)CN2C(=O)[C@@H](NC(=O)CCCCCCCCC#Cc2cnc(N)c3c(-c4ccc(NS(=O)(=O)C(F)F)c(O[C@@H](C)c5ccc(F)cc5)c4)nn(C)c23)C(C)(C)C)cc1 [Compound 1028, (2S,4R)-1-[(2S)-2-(11-{4-amino-3-[4-(difluoromethanesulfonamido)-3-[(1S)-1-(4-fluorophenyl)ethoxy]phenyl]-1-methyl-1H-pyrazolo[4,3-c]pyridin-7-yl}undec-10-ynamido)-3,3-dimethylbutanoyl]-4-hydroxy-N-{[4-(4-methyl-1,3-thiazol-5-yl)phenyl]methyl}pyrrolidine-2-carboxamide]
- DC50 [1]: 1000 to 10000 nM

Compound: Cn1nc(-c2ccc(NS(=O)(=O)C(F)F)c(F)c2)c2c(N)ncc(-c3cnn(CCCCCCCOc4cccc5c4C(=O)N(C4CCC(=O)NC4=O)C5=O)c3)c21 (stereo not drawn) [Compound 1060, N-(4-{4-amino-7-[1-(7-{[2-(2,6-dioxopiperidin-3-yl)-1,3-dioxo-2,3-dihydro-1H-isoindol-4-yl]oxy}heptyl)-1H-pyrazol-4-yl]-1-methyl-1H-pyrazolo[4,3-c]pyridin-3-yl}-2-fluorophenyl)-1,1-difluoromethanesulfonamide]
- Kd ([2]; hMLKL, Table 25, read-out: MLKL (KD)): < 10 nM
- DC50 [1]: 1000 to 10000 nM

Compound: C[C@H](Oc1cc(-c2nn(C)c3c(-c4cnn(C5CCC(C)(C)N(C)C5)c4)cnc(N)c23)ccc1NS(=O)(=O)C(F)F)c1ccc(F)cc1 (stereo partly drawn) [Compound 104, N-(4-{4-amino-1-methyl-7-[1-(1,6,6-trimethylpiperidin-3-yl)-1H-pyrazol-4-yl]-1H-pyrazolo[4,3-c]pyridin-3-yl}-2-[(1 S)-1-(4-fluorophenyl)ethoxy]phenyl)-1,1-difluoromethanesulfonamide]
- Kd [2, 6]: < 1 nM
- Kd [3]: > 10 µM
- Kd [4]: > 10 µM
- IC50 [5]: < 1000 nM

Compound: C[C@H](Oc1cc(-c2nn(C)c3c(-c4cnn(C5CCN(CCc6cn(CCNc7cccc8c7C(=O)N(C7CCC(=O)NC7=O)C8=O)nn6)CC5)c4)cnc(N)c23)ccc1NS(=O)(=O)C(F)F)c1ccc(F)cc1 (stereo partly drawn) [Compound 1135, N-(4-{4-amino-7-[1-(1-{2-[1-(2-{[2-(2,6-dioxopiperidin-3-yl)-1,3-dioxo-2,3-dihydro-1H-isoindol-4-yl]amino}ethyl)-1H-1,2,3-triazol-4-yl]ethyl}piperidin-4-yl)-1H-pyrazol-4-yl]-1-methyl-1H-pyrazolo[4,3-c]pyridin-3-yl}-2-[(1 S)-1-(4-fluorophenyl)ethoxy]phenyl)-1,1-difluoromethanesulfonamide]
- DC50 [1]: 1000 to 10000 nM

Compound: C[C@H](Oc1cc(-c2nn(C)c3c(-c4cnn(CCCCCCCOc5cccc6c5C(=O)N(C5CCC(=O)N(C)C5=O)C6=O)c4)cnc(N)c23)ccc1NS(=O)(=O)C(F)F)c1ccc(F)cc1 (stereo partly drawn) [Compound 1100, N-(4-{4-amino-1-methyl-7-[1-(7-{[2-(1-methyl-2,6-dioxopiperidin-3-yl)-1,3-dioxo-2,3-dihydro-1H-isoindol-4-yl]oxy}heptyl)-1H-pyrazol-4-yl]-1H-pyrazolo[4,3-c]pyridin-3-yl}-2-[(1S)-1-(4-fluorophenyl)ethoxy]phenyl)-1,1-difluoromethanesulfonamide]
- DC50 [1]: < 1000 nM

Compound: C[C@H](Oc1cc(-c2nn(C)c3c(-c4cnn(C5CCC(N(C)C)C5)c4)cnc(N)c23)ccc1NS(=O)(=O)C(F)F)c1ccc(F)cc1 (stereo partly drawn) [Compound 168, N-(4-(4-amino-7-(1-(3-(dimethylamino)cyclopentyl)-1H-pyrazol-4-yl)-1-methyl-1H-pyrazolo[4,3-c]pyridin-3-yl)-2-((S)-1-(4-fluorophenyl)ethoxy)phenyl)-1,1-difluoromethanesulfonamide]
- Kd [2, 6]: < 1 nM
- Kd [3]: > 10 µM
- Kd [4]: > 10 µM
- IC50 [5]: < 1000 nM

Compound: Cc1ncsc1-c1ccc(CNC(=O)[C@@H]2C[C@@H](O)CN2C(=O)[C@@H](NC(=O)CCCCCCC#Cc2cnc(N)c3c(-c4ccc(NS(=O)(=O)C(F)F)c(O[C@@H](C)c5ccc(F)cc5)c4)nn(C)c23)C(C)(C)C)cc1 [Compound 1027, (2S,4R)-1-[(2S)-2-(9-{4-amino-3-[4-(difluoromethanesulfonamido)-3-[(1S)-1-(4-fluorophenyl)ethoxy]phenyl]-1-methyl-1H-pyrazolo[4,3-c]pyridin-7-yl}non-8-ynamido)-3,3-dimethylbutanoyl]-4-hydroxy-N-{[4-(4-methyl-1,3-thiazol-5-yl)phenyl]methyl}pyrrolidine-2-carboxamide]
- DC50 [1]: 1000 to 10000 nM

From US20250115598A1 (Anaxis Pharma Pty Ltd, priority 2021, published 2025)
